According to PMC10247784, “Physiological activation of human and mouse bitter taste receptors by bile acids” (Communications Biology, 2023):

Target: T1, mouse Tas2r144 (Mus musculus, UniProt Q7TQB8)
T1 construct: expressed in transfected cells; host or cells: HEK293T-Gα16gust44
Experiment: Calcium imaging assay (FLIPR), HEK293T-Gα16gust44 cells transfected with mouse Tas2r144
Assay type: cell-based
Method: This set of bile acids was chosen because of their commercial availability in high purities, their diversity within the class of bile acids and their previous detection and quantitation in human blood. Stock solutions were prepared in DMSO.
As basal growth medium for the HEK293T-Gα16gust44 cell line[17],[59] served Dulbecco’s modified eagle medium (DMEM) (Thermo Fisher Scientific, Darmstadt, Germany) supplemented with 10 % fetal bovine serum (Sigma-Aldrich, Steinheim, Germany), 2 mM L-glutamine (Sigma-Aldrich, Steinheim, Germany), 100 units/ml penicillin (Sigma Aldrich, Steinheim, Germany) and 100 µg/ml streptomycin (Sigma Aldrich, Steinheim, Germany). Growth conditions were 37 °C, 5 % CO2 and saturated air-humidity[60].
HEK293T-Gα16gust44 cells were seeded on poly-D-lysine (10 µg/ml) coated 96-well plates to reach a confluence of 40-60 % the next day. For transient transfection 150 ng of plasmid DNA containing the receptor of interest and 0.3 µl lipofectamine 2000 (Thermo Fisher Scientific, Darmstadt, Germany) per well were used and transfection took place according to the manual of lipofectamine 2000. […] The empty vector DNA (mock) was transfected as negative control[14],[41].
Cells were loaded using the calcium-sensitive fluorescent dye Fluo-4-AM (Abcam, Cambridge, Great Britain) in the presence of 2.5 mM probenecid (Sigma-Aldrich, Steinheim, Germany) the day after transfection[13],[41]. 1 h after loading, cells were washed with C1 buffer using a BioTek Cell Washer, incubated in the dark for half an hour and washed again. For automated agonist application and measurement of fluorescence changes, a FLIPR^TETRA device (Molecular Devices, San José, United States) was used. Viability of cells was tested by application of 100 nM Somatostatin 14 (Bachem, Bubendorf, Switzerland)[42].
Measured data were negative control corrected by subtracting the signal of the mock-transfected cells and exported to Microsoft Excel using the FLIPR software ScreenWorks 4.2. In Microsoft Excel software, standardization of maximum fluorescence intensities to the basal fluorescence and normalization to the buffer-only control was done to calculate the relative fluorescence changes (ΔF/F).
Initial screening experiments performed in duplicate wells were confirmed by at least one replication and representative traces were selected for display. All dose-response relationships were determined by three independent experiments (biological replicates) performed in duplicates (technical replicates). Threshold concentrations, defined as lowest substance concentrations leading to statistically significant elevated fluorescence changes in receptor-transfected cells compared with empty vector-transfected cells, were determined using SigmaPlot with Student’s t-test to evaluate statistical significance (p < 0.01).

T1 sequence (Q7TQB8 whole entry): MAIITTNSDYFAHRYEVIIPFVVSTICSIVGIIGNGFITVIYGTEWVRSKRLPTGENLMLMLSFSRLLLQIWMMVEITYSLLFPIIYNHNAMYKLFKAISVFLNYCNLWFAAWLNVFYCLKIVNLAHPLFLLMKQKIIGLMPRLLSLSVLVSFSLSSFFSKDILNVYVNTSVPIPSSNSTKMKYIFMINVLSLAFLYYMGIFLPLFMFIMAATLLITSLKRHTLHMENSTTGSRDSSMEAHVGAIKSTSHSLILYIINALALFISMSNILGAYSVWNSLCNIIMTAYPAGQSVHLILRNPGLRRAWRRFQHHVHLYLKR

C[C@H](CCC(=O)O)[C@H]1CC[C@H]2[C@@H]3[C@H](O)C[C@@H]4C[C@H](O)CC[C@]4(C)[C@H]3C[C@H](O)[C@]12C [Cholic Acid, cholic acid]
RLU (Time 0 s): 0 RLU
RLU (Time 2 s): 0.2042 RLU
RLU (Time 4 s): 5.384 RLU
RLU (Time 6 s): -45.6095 RLU
RLU (Time 8 s): 13.5839 RLU
RLU (Time 12 s): 34.8706 RLU
RLU (Time 14 s): 52.0817 RLU
RLU (Time 16 s): 11.4185 RLU
RLU (Time 18 s): 29.9569 RLU
RLU (Time 18.781 s): 46.048 RLU
RLU (Time 20.781 s): 112.965 RLU
RLU (Time 22.781 s): 165.689 RLU
RLU (Time 24.781 s): 205.772 RLU
RLU (Time 26.781 s): 242.163 RLU
RLU (Time 28.781 s): 320.656 RLU
RLU (Time 30.781 s): 367.762 RLU
RLU (Time 32.781 s): 422.903 RLU
RLU (Time 34.781 s): 499.119 RLU
RLU (Time 36.781 s): 524.9 RLU
RLU (Time 38.781 s): 565.569 RLU
RLU (Time 40.781 s): 583.905 RLU
RLU (Time 42.781 s): 606.644 RLU
RLU (Time 44.781 s): 633.066 RLU
RLU (Time 46.781 s): 639.921 RLU
RLU (Time 48.781 s): 638.534 RLU
RLU (Time 50.781 s): 641.518 RLU
RLU (Time 52.781 s): 632.385 RLU
RLU (Time 54.781 s): 644.317 RLU
RLU (Time 56.781 s): 655.573 RLU
RLU (Time 58.781 s): 678.513 RLU
RLU (Time 60.781 s): 666.775 RLU
RLU (Time 62.781 s): 667.745 RLU
RLU (Time 64.781 s): 637 RLU
RLU (Time 66.781 s): 647.88 RLU
RLU (Time 68.781 s): 635.725 RLU
RLU (Time 70.781 s): 644.081 RLU
RLU (Time 72.781 s): 655.408 RLU
RLU (Time 74.781 s): 647.263 RLU
RLU (Time 76.781 s): 633.033 RLU
RLU (Time 78.781 s): 631.561 RLU
RLU (Time 80.781 s): 620.522 RLU
RLU (Time 82.781 s): 627.467 RLU
RLU (Time 84.781 s): 627.103 RLU
RLU (Time 86.781 s): 578.642 RLU
RLU (Time 88.781 s): 568.631 RLU
RLU (Time 90.781 s): 548.759 RLU
RLU (Time 92.781 s): 576.256 RLU
RLU (Time 94.781 s): 543.082 RLU
RLU (Time 96.781 s): 562.136 RLU
RLU (Time 98.781 s): 521.114 RLU
RLU (Time 100.781 s): 533.293 RLU
RLU (Time 102.781 s): 509.746 RLU
RLU (Time 104.781 s): 492.298 RLU
RLU (Time 106.781 s): 485.694 RLU
RLU (Time 108.781 s): 481.982 RLU
RLU (Time 110.781 s): 458.143 RLU
RLU (Time 112.781 s): 439.768 RLU
RLU (Time 114.781 s): 433.077 RLU
RLU (Time 116.781 s): 415.823 RLU
RLU (Time 118.781 s): 408.859 RLU
RLU (Time 120.781 s): 392.039 RLU
RLU (Time 122.781 s): 431.314 RLU
RLU (Time 124.781 s): 392.828 RLU
RLU (Time 126.781 s): 373.554 RLU
RLU (Time 128.781 s): 347.376 RLU
RLU (Time 130.781 s): 337.354 RLU
RLU (Time 132.781 s): 314.537 RLU
RLU (Time 134.781 s): 326.444 RLU
RLU (Time 136.781 s): 292.52 RLU
RLU (Time 137.562 s): 313.513 RLU
RLU (Time 143.562 s): 250.659 RLU
RLU (Time 149.562 s): 229.584 RLU
RLU (Time 155.562 s): 203.982 RLU
RLU (Time 161.562 s): 211.817 RLU
RLU (Time 167.562 s): 206.485 RLU
RLU (Time 173.562 s): 171.281 RLU
RLU (Time 179.562 s): 153.445 RLU
RLU (Time 185.562 s): 144.359 RLU
RLU (Time 191.562 s): 143.458 RLU
RLU (Time 197.562 s): 135.182 RLU
RLU (Time 203.562 s): 115.034 RLU
RLU (Time 209.562 s): 107.877 RLU
RLU (Time 215.562 s): 83.8781 RLU
RLU (Time 221.562 s): 20.807 RLU
RLU (Time 227.562 s): 27.2515 RLU
RLU (Time 233.562 s): -2.456 RLU
RLU (Time 239.562 s): 17.5402 RLU
RLU (Time 245.562 s): -0.008323 RLU
RLU (Time 293.562 s): 2 RLU
RLU (Time 299.562 s): -5.681 RLU
RLU (Time 305.562 s): 20.6398 RLU
RLU (Time 311.562 s): 25.3808 RLU
RLU (Time 317.562 s): 16.3914 RLU
RLU (Time 323.562 s): 41.1546 RLU
RLU (Time 329.562 s): -2.456 RLU
RLU (Time 335.562 s): 34.2464 RLU
RLU (Time 341.562 s): 21.8644 RLU
RLU (Time 347.562 s): 15.2738 RLU
RLU (Time 353.562 s): 29.9395 RLU
RLU (Time 359.562 s): 27.2515 RLU
Activation threshold concentration Tas2r144 (p < 0.01 vs empty vector): 100 µM
